Results published in US20240425478A1, “CYCLOPENTYLPYRAZOLE CDK2 INHIBITORS” (Genentech, Inc., priority 2021, published 2024).
Read-outs that look alike come from different tables or passages of the source.

What was measured:
[1] = test system: OVISE (JCRB1043, CCNE1-amplified); experiment: OVISE EdU incorporation cell proliferation assay (CDK2-dependent); assay type: cell-based; settings: for IC50: cellular assay, read-out: CDK2 OVISE IC50; for FS SKOV-3/OVISE / FS p-H3/OVISE: fold selectivity; for FS p-H3/OVISE: cellular p-H3 IC50 over OVISE IC50
Outline: (§1)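 EdU incorporation (0.5 μM final, last 8 h) follows a 16 h compound exposure at 37 °C, 5% CO2 in RPMI plus 10% FBS, 0.5% DMSO. After fixation, imaging scores EdU-positive cells; a 4-parameter logistic fit of that fraction gives IC50.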

[2] = target: T1, Cyclin Dependent Kinase 1/Cyclin A2 (CDK1-cycA2) (Homo sapiens, UniProt P06493); experiment: CDK1-cycA2 TR-FRET (Lance) enzyme assay; assay type: biochemical; settings: for Ki: Table O, enzymatic assay; for FS CDK1/CDK2: fold selectivity, enzymatic Ki ratio
T1 construct: purchased ProQinase 0134-0054-1
T1 sequence (P06493 whole entry): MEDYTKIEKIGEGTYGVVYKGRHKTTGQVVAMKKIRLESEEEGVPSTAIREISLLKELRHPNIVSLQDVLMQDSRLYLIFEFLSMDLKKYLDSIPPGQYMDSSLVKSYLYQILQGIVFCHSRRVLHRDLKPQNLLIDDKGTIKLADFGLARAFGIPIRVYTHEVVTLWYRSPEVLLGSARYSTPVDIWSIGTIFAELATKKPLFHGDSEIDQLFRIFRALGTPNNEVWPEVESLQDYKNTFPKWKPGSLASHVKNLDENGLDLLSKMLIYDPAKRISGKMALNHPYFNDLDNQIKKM
T1 sequence (P20248 whole entry partner): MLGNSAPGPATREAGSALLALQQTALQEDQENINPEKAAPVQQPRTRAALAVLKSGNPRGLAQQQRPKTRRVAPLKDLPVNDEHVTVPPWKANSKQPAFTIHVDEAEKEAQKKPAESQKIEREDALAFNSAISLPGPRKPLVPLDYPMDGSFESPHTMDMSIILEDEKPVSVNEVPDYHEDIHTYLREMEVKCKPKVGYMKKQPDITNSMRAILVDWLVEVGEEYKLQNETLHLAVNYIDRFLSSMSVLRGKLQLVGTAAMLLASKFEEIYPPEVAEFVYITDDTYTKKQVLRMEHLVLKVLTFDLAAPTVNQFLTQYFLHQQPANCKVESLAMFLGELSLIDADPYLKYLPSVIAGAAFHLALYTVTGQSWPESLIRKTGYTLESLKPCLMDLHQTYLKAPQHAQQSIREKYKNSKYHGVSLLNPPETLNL
Outline: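 TR-FRET (Lance) detection of phospho-4E-BP1 with a europium-labelled antibody after EDTA quench (15 mM final); signal taken as acceptor/donor ratio. Enzyme and compound were pre-incubated 30 min in HEPES pH 7.5 buffer with MgCl2, TCEP, BGG and Brij 35. Ki derived by Morrison fit.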

HCT116 cells = experiment: p-H3 HCT-116 mitotic release cell proliferation assay (cellular CDK1); assay type: cell-based; settings: Homo sapiens, HCT-116; Table O, cellular assay; read-out: CDK1 p-H3 IC50
Procedure: Inhibition of cellular CDK1 determined by release of cells from nocodazole-induced mitotic arrest, as measured by decrease in phospho-Histone H3. Histone H3 (Ser 10) level is detected in cell lysates by producing a Fluorescence Resonance Energy Transfer (FRET) signal between two antibodies, Phospho-Histone H3 Cryptate (acting as the donor) and Phospho-Histone H3 d2 (acting as the acceptor).
Plates are allowed to rest overnight at 37° C./5% CO2. The following morning, nocodazole is diluted in complete medium, and 5 μL is added to each test well and positive control well for a final concentration of 500 nM. Plates are then incubated for 16 hours at 37° C./5% CO2. […] 10 μL of diluted compound is then transferred to the cell plate (final DMSO concentration 0.1%). Cell plates are then incubated for 4 hours in 37° C. 5% CO2. A cell lysis buffer is prepared on ice using reagents from the Phospho-Histone H3 (Ser10) cellular kit (Cisbio-64HH3PEG). Supernatant is discarded from the cell plate and 80 μL of the supplemented cell lysis buffer (1:99 dilution of the Blocking Reagent and the 1× cell lysis buffer provided in the kit) is added to each of the experimental wells. The cell lysis reaction is allowed to proceed at room temperature while shaking vigorously for 30 minutes. The 384-well HTRF (Homogeneous Time Resolved Fluorescence) plate is prepared by adding 2 μL of each diluted antibody (Phospho-Histone H3 Cryptate antibody and Phospho-Histone H3 d2 antibody diluted 19:1 in a detection buffer) and 12 μL of the supplemented cell lysis buffer to each well in the HTRF plate. 4 μL of the cell lysate is added to the prepared HTRF plate which is then sealed and the reaction is allowed to proceed for a minimum of 2 hours at room temperature.

[3] = target: T2, Cyclin Dependent Kinase 4/Cyclin D3 (CDK4-cycD3) (Homo sapiens, UniProt P11802); experiment: CDK4-cycD3 TR-FRET (LANCE) enzyme assay; assay type: biochemical; settings: for Ki: Table O, enzymatic assay; for FS CDK4/CDK2: fold selectivity, enzymatic Ki ratio
T2 construct: purchased Carna Biosciences 04-105
T2 sequence (P11802 whole entry): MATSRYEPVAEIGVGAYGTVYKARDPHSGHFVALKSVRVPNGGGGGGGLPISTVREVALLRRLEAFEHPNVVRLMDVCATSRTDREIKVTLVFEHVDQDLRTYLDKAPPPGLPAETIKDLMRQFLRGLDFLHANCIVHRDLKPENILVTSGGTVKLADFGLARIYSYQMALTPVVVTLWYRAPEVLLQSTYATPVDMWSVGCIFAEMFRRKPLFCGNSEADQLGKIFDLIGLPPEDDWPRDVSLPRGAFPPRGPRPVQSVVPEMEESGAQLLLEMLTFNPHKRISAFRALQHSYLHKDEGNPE
T2 sequence (P30281 whole entry partner): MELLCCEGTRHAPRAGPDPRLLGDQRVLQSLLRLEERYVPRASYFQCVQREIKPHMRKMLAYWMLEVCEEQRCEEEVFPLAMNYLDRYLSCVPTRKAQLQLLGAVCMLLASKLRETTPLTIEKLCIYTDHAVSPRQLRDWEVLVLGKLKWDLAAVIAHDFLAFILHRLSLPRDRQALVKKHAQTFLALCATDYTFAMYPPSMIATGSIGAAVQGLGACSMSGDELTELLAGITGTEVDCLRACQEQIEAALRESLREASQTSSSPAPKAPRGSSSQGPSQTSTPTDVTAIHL
Outline: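 Compound dose responses pre-incubated 30 min with enzyme mix in 50 mM HEPES pH 7.5, 10 mM MgCl2, 2 mM TCEP, 0.05% BGG, 0.01% Brij 35. Reaction quenched with EDTA (15 mM final); Eu-anti-phospho-4E-BP1 TR-FRET detection, acceptor/donor ratio. Ki derived by Morrison equation.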

[4] = target: T3, Cyclin Dependent Kinase 2/Cyclin E1 (CDK2-cycE1) (Homo sapiens, UniProt P24941); experiment: CDK2-cycE1 TR-FRET (LANCE) enzyme assay; assay type: biochemical; settings: for Ki: enzymatic assay, read-out: CDK2 Ki; for FS CDK1/CDK2 / FS CDK4/CDK2: fold selectivity;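 as to improvement in potency against CDK2 (Ki) over Comparator C: fold lower CDK2 Ki than comparator c (Ki 0.032 µM)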
T3 construct: purchased ProQinase 0050-0055-1
Outline: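 Kinase reaction buffer: 50 mM HEPES pH 7.5, 10 mM MgCl2, 2 mM TCEP, 0.05% BGG, 0.01% Brij 35, with 30 min compound–enzyme pre-incubation.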

SKOV-3 (ATCC HTB-77) = experiment: SKOV-3 EdU incorporation cell proliferation assay (CDK4/6-dependent); assay type: cell-based; settings: for IC50: Homo sapiens, cellular assay, read-out: CDK4/6 SKOV-3 IC50; for FS SKOV-3/OVISE: fold selectivity, cellular IC50 ratio
Outline: as §1

[5] = Table O, cellular SKOV-3 IC50 over OVISE IC50
[6] = Table O, enzymatic CDK1 Ki over CDK2 Ki
[7] = Table O, enzymatic CDK4 Ki over CDK2 Ki

Row | SMILES | IC50 ([1]; Table O) [nM] | FS SKOV-3/OVISE [1, 5] | FS p-H3/OVISE ([1]; Table O) | Ki [2] [nM] | IC50 (HCT116 cells) [nM] | Ki [3] [nM] | Ki ([4]; Table O) [nM] | FS CDK1/CDK2 [4, 6] | FS CDK4/CDK2 [4, 7] | IC50 (SKOV-3 (ATCC HTB-77); SK-OV-3, Table O) [nM] | also measured
1 | CC(C)NC(=O)O[C@@H]1CC[C@H](c2cc(Nc3ccc(-n4ccnc4)cn3)n[nH]2)C1 [Example 2EE, (1R,3S)-3-(3-((5-(1H-imidazol-1-yl)pyridin-2-yl)amino)-1H-pyrazol-5-yl)cyclopentyl isopropylcarbamate] | 340 | 29 | 2.6 | 290 | 900 | 190 | 3.2 | 91 | 59 | 9700 | increased fold-selectivity SKOV-3/OVISE over Comparator C ([1]; Table Q, (+) sign after FS SKOV-3/OVISE): (+) (The (+) sign in Table Q signifies desirable increased fold-selectivity of the exemplary compounds over Comparator C); FS SKOV-3/OVISE ([1]; Table Q, cellular): 29; improvement in CDK2 OVISE cell potency over Comparator C ([1]; Table Q, in brackets after OVISE IC50, Comparator C 5.5 μM): 16 fold; improvement in potency against CDK2 (Ki) over Comparator C [4]: 10 fold; increased fold-selectivity CDK1/CDK2 over Comparator C ([4]; Table Q, (+) sign after FS CDK1/CDK2): (+) (The (+) sign in Table Q signifies desirable increased fold-selectivity of the exemplary compounds over Comparator C); increased fold-selectivity CDK4/CDK2 over Comparator C ([4]; Table Q, (+) sign after FS CDK4/CDK2): (+) (The (+) sign in Table Q signifies desirable increased fold-selectivity of the exemplary compounds over Comparator C); Ki ([4]; Table Q): 3.2 nM; FS CDK1/CDK2 ([4]; Table Q, enzymatic): 91; FS CDK4/CDK2 ([4]; Table Q, enzymatic): 59; IC50 (SKOV-3 (ATCC HTB-77); SK-OV-3, Table Q): 9700 nM
2 | CN1CCN(c2ccc(Nc3cc([C@H]4CC[C@@H](OC(=O)NC56CC(C5)C6)C4)[nH]n3)cn2)CC1 [Example 9H, (1R,3S)-3-(3-((6-(4-methylpiperazin-1-yl)pyridin-3-yl)amino)-1H-pyrazol-5-yl)cyclopentyl bicyclo[1.1.1]pentan-1-ylcarbamate] | 150 | 1 | 0.26 | 30 | 39 | 9.5 | 4.7 | 6.4 | 2 | 150 | –
3 | CC1(NC(=O)O[C@@H]2CC[C@H](c3cc(Nc4cccnn4)n[nH]3)C2)CNC1 [Example 3F, (1R,3S)-3-(3-(pyridazin-3-ylamino)-1H-pyrazol-5-yl)cyclopentyl (3-methylazetidin-3-yl)carbamate] | 320 | 4.1 | 1.1 | 110 | 350 | 24 | 4 | 27 | 6 | 1300 | –
4 | Cc1ccncc1Nc1cc([C@H]2CC[C@@H](OC(=O)NC(C)(C)C)C2)[nH]n1 [Example 4A, (1R,3S)-3-(3-((4-methylpyridin-3-yl)amino)-1H-pyrazol-5-yl)cyclopentyl tert-butylcarbamate] | 180 | 71 | 0.72 | 210 | 93 | 410 | 2.6 | 78 | 170 | 9900 | CDK2 OVISE IC50 fold change in potency versus Comparator D ([1]; Table R, in brackets after OVISE IC50): 21 fold; CDK2 OVISE IC50 fold change in potency versus Comparator E ([1]; Table S, in brackets after OVISE IC50): 0.9 fold; FS CDK1/CDK2 increased over Comparator D, (+) sign ([2]; Table R): (+); FS CDK1/CDK2 ([2]; Table R): 78; FS CDK1/CDK2 increased over Comparator E, (+) sign ([2]; Table S): (+); FS CDK1/CDK2 ([2]; Table S): 78; FS CDK4/CDK2 increased over Comparator D, (+) sign ([3]; Table R): (+); FS CDK4/CDK2 ([3]; Table R): 170; FS CDK4/CDK2 increased over Comparator E, (+) sign ([3]; Table S): (+); FS CDK4/CDK2 ([3]; Table S): 170; Ki ([4]; Table R): 2.6 nM; CDK2 Ki fold change in potency versus Comparator D ([4]; Table R, in brackets after CDK2 Ki): 1 fold; Ki ([4]; Table S): 2.6 nM; CDK2 Ki fold change in potency versus Comparator E ([4]; Table S, in brackets after CDK2 Ki): 0.2 fold; selectivity for CDK2 over CDK4 compared with Comparator E (SKOV-3 (ATCC HTB-77); SKOV-3/OVISE fold-selectivity cellular assay data): increase in selectivity for CDK2 over CDK4; FS SKOV-3/OVISE increased over Comparator D, (+) sign (SKOV-3 (ATCC HTB-77); Table R): (+); FS SKOV-3/OVISE (SKOV-3 (ATCC HTB-77); Table R): 71; FS SKOV-3/OVISE increased over Comparator E, (+) sign (SKOV-3 (ATCC HTB-77); Table S): (+); FS SKOV-3/OVISE (SKOV-3 (ATCC HTB-77); Table S): 71
